Test results from patent publication US20050239832A1, “Methods of treatment of amyloidosis using bi-cyclic aspartyl protease inhibitors” (priority 2004, published 2005).

How the values were obtained:
[1] = system: catD versus beta-secretase (BACE); experiment: Selectivity for inhibiting BACE over aspartyl protease catD (ratio of IC50 values); format: biochemical; conditions: average of four experimental runs
Protocol: Investigation of potential beta-secretase inhibitors produced compounds with increased selectivity for beta-secretase over other aspartyl proteases such as cathepsin D (catD), cathepsin E (catE), HIV protease, and renin. Selectivity was calculated as a ratio of inhibition (IC50) values in which the inhibition of beta-secretase was compared to the inhibition of other aspartyl proteases. […] Alternatively, a compound is selective when its binding affinity is greater for its desired target (e.g., beta-secretase) versus a secondary target (e.g., catD). Accordingly, methods of treatment include administering selective compounds of formula (I) having a lower IC50 value for inhibiting beta-secretase, or greater binding affinity for beta-secretase, than for other aspartyl proteases such as catD, catE, HIV protease, or renin. A selective compound is also capable of producing a higher ratio of desired effects to adverse effects, resulting in a safer method of treatment.
The compounds of formula (I) can be selective for beta-secretase versus catD. […] Selectivity is reported as the ratio of IC50(catD):IC50(BACE).
In the following examples, each value is an average of four experimental runs and multiple values for one compound indicate that more than one experiment was conducted.

[2] = in vivo; conditions: CF-1, mouse, iv
Protocol: The following assay was employed to determine the brain penetration of compounds encompassed by the present invention.
In-life phase: Test compounds were administered to CF-1 (20-30 g) mice at 10 μmol/kg (4 to 7 mg/kg) following IV administration in the tail vein. Two time-points, 5 and 60 min, were collected post dose. Four mice were harvested for heparinized plasma and non-perfused brains at each time-point for a total of 8 mice per compound.
Analytical phase: Samples were extracted and evaporated to dryness, then reconstituted and injected onto a reverse phase chromatographic column while monitoring the effluent with a triple quadrupole mass spectrometer. Quantitation was then performed with a 1/x^2 weighted fit of the least-squares regression from calibration standards prepared in parallel with the in vivo samples. The LOQ is generally 1 ng/mL and 0.5 ng/g for the plasma and brain respectively. Data was reported in micromolar (μM) units. Brain levels were corrected for plasma volumes (16 μL/g).

[3] = system: A-beta; experiment: Efficacy of compounds to inhibit A-beta concentration (% inhibition vs vehicle control); format: in vivo, rat
Protocol: Efficacious compounds of the present invention are those able to decrease the amount of A-beta produced compared to a control, where beta-secretase mediated cleavage is observed and measured in the absence of the compounds. Detection of efficacy can be by analysis of A-beta levels, for example, by immunoassay, fluorometric or chromogenic assay, HPLC, or other means of detection. The efficacy of the compounds of formula (I) was determined as a percentage inhibition corresponding to A-beta concentrations for tissue treated and untreated with a compound of formula (I).
The invention encompasses compounds of formula (I) that are efficacious. Efficacy is calculated as a percentage of concentrations as follows: Efficacy=(1−(total A-beta in dose group/total A-beta in vehicle control))*100% wherein the “total A-beta in dose group” equals the concentration of A-beta in the tissue, (e.g., rat brain) treated with the compound, and the “total A-beta in vehicle control” equals the concentration of A-beta in the tissue, yielding a % inhibition of A-beta production. Statistical significance is determined by p-value<0.05 using the Mann Whitney t-test. See, for example, Dovey et al., J. Neurochemistry, 2001, 76:173-181. […]

[4] = target: BACE (Homo sapiens, UniProt P56817); experiment: BACE EC50 (enzyme inhibition, Table on oral bioavailability); format: biochemical
[5] = system: HEKp293 cells transfected with APP751 containing the Swedish mutation (A-beta); experiment: cells; format: cell-based; conditions: Homo sapiens, read-out: Cell EC50 (nM)
Text: An exemplary assay for the analysis of inhibition of beta-secretase activity utilizes the human embryonic kidney cell line HEKp293 (ATCC Accession No. CRL-1573) transfected with APP751 containing the naturally occurring double mutation Lys651Met652 to Asn651Leu652 (numbered for APP751), commonly called the Swedish mutation and shown to overproduce A-beta (Citron et al., 1992, Nature, 360:672-674), as described in U.S. Pat. No. 5,604,102.
At the end of the treatment period, conditioned media is analyzed for beta-secretase activity, for example, by analysis of cleavage fragments. A-beta can be analyzed by immunoassay, using specific detection antibodies.

[6] = Oral bioavailability in the male Sprague-Dawley rat (IV and PO); format: in vivo; conditions: plasma, 10 mg/kg
Protocol: The invention encompasses compounds of formula (I) that are orally bioavailable. Generally, oral bioavailability is defined as the fraction of orally administered dose reaching systemic circulation. Oral bioavailability can be determined following both an intravenous (IV) and oral (PO) administration of a test compound.
Oral bioavailability was determined in the male Sprague-Dawley rat following both IV and PO administration of test compound. Two month-old male rats (250-300 g) were surgically implanted with polyethylene (PE-50) cannula in the jugular vein while under isoflurane anesthesia the day before the in-life phase. Animals were fasted overnight with water ad libitum, then dosed the next day. The dosing regime. consisted of either a 5 mg/kg (2.5 mL/kg) IV dose (N=3) administered to the jugular vein cannula, then flushed with saline, or a 10 mg/kg (5 mL/kg) PO dose (N=3) by esophageal gavage. Compounds were formulated with 10% Solutol in 5% dextrose at 2 mg/mL. Subsequent to dosing, blood was collected at 0.016 (IV only), 0.083, 0.25, 0.5, 1, 3, 6, 9, and 24 h post administration, and heparinized plasma was recovered following centrifugation.
Compounds were extracted from samples following precipitation of the plasma proteins by methanol. The resulting supernatants were evaporated to dryness and reconstituted with chromatographic mobile phase (35% acetonitrile in 0.1% formic acid) and injected onto a reverse phase C18 column (2×50 mm, 5 μm, BDS Hypersil). Detection was facilitated with a multi-reaction-monitoring experiment on a tandem triple quadrupole mass spectrometer (LC/MS/MS) following electrospray ionization. Experimental samples were compared to calibration curves prepared in parallel with aged match rat plasma and quantitated with a weighted 1/x linear regression. The lower limit of quantization (LOQ) for the assay was typically 0.5 ng/mL.
Oral bioavailability (% F) is calculated from the dose normalized ratio of plasma exposure following oral administration to the intravenous plasma exposure in the rat by the following equation % F=(AUCpo/AUCiv)×(Div/Dpo)×100% where D is the dose and AUC is the area-under-the-plasma-concentration-time-curve from 0 to 24 h. AUC is calculated from the linear trapezoidal rule by AUC=((C2+C1)/2)×(T2−T1) where C is concentration and T is time.
Pharmacokinetic parameters were calculated by a non-compartmental approach. See, for example, Gibaldi, M. and Perrier, D., Pharmacokinetics, Second Edition, 1982, Marcel Dekker Inc., New York, N.Y., pp 409-418.

[7] = 100 mg/kg, cortex, inhibition of total A-beta vs vehicle control
[8] = 100 mg/kg, plasma, inhibition of total A-beta vs vehicle control

Sequence of BACE (P56817 46-501): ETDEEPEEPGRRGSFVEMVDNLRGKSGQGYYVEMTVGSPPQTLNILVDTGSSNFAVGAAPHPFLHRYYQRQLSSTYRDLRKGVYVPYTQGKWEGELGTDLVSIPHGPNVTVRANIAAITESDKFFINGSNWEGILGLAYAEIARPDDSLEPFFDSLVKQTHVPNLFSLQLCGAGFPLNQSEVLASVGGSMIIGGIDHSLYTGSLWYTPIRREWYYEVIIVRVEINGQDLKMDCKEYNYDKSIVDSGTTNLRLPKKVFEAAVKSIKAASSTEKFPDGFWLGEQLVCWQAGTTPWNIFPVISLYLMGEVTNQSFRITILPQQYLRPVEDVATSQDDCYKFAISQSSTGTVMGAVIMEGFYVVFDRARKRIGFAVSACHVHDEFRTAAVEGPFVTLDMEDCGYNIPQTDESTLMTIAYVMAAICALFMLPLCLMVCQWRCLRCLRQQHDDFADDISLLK

SMILES	Efficacy (% Inhibition, 100 mg/kg) cortex [3, 7]	Efficacy (% Inhibition, 100 mg/kg) plasma [3, 8]	EC50 [4]	bioavailability [6]	further results
CCc1ccc2c(c1)C(NCC(O)C(Cc1cc(F)cc(F)c1)NC(C)=O)CCN2 (stereo not drawn) [Example 91.7, N-[1-(3,5-Difluoro-benzyl)-3-(6-ethyl-1,2,3,4-tetrahydro-quinolin-4-ylamino)-2-hydroxy-propyl]-acetamide]					Selectivity IC50 catD/ IC50 BACE [1]: 2.1
CC(C)(C)NC(=O)[C@@H]1CN(Cc2cccnc2)CCN1C[C@@H](O)C[C@@H](Cc1ccccc1)C(=O)N[C@H]1c2ccccc2C[C@H]1O [Indinavir]					concentration at 5 min [2]: 165 nM; concentration at 60 min [2]: 11 nM
CC(=O)NC(Cc1cc(F)cc(F)c1)C(O)CNC1c2cc(CC(C)(C)C)ccc2CCC1CO (stereo not drawn) [Example 91.6, N-{1-(3,5-Difluoro-benzyl)-3-[7-(2,2-dimethyl-propyl)-2-hydroxymethyl-1,2,3,4-tetrahydro-naphthalen-1-ylamino]-2-hydroxy-propyl}-acetamide]					Selectivity IC50 catD/ IC50 BACE [1]: 4.4
CC(C)(C)Cc1ccc2c(c1)C(NCC(O)C(Cc1cc(F)cc(F)c1)NC(=O)CF)CCC2 (stereo not drawn) [Example 91.3, N-{1-(3,5-Difluoro-benzyl)-3-[7-(2,2-dimethyl-propyl)-1,2,3,4-tetrahydro-naphthalen-1-ylamino]-2-hydroxy-propyl}-2-fluoro-acetamide]	14%	23%			
CCc1cc(CC(C)(C)C)cc2c1CCCC2NCC(O)C(Cc1cc(F)cc(F)c1)NC(C)=O (single isomer, unassigned) [91.2 Diastereomer A]	44%	57%			
CC(=O)NC(Cc1cc(F)cc(F)c1)C(O)CNC1CCNc2ccc(CC(C)(C)C)cc21 (single isomer, unassigned) [91.10 Diastereomer B]			190 nM	5%	EC50 [5]: 13 nM
CCc1ccc2c(c1)C(NCC(O)C(Cc1cc(F)cc(F)c1)NC(C)=O)CCC2 (stereo not drawn) [Example 91.11, N-[1-(3,5-Difluoro-benzyl)-3-(7-ethyl-1,2,3,4-tetrahydro-naphthalen-1-ylamino)-2-hydroxy-propyl]-acetamide]			210 nM	14.3%	
CC(=O)NC(Cc1cc(F)cc(F)c1)C(O)CNC1CCCc2ccc(CC(C)(C)C)cc21 (stereo not drawn) [Example 91.1, N-{1-(3,5-Difluoro-benzyl)-3-[7-(2,2-dimethyl-propyl)-1,2,3,4-tetrahydro-naphthalen-1-ylamino]-2-hydroxy-propyl}-acetamide]			9 nM	15%	Efficacy (% Inhibition, 100 mg/kg) cortex ([3]; rat, in vivo): 47%; Efficacy (% Inhibition, 100 mg/kg) plasma ([3]; rat, in vivo): 63%
CC(=O)NC(Cc1cc(F)cc(F)c1)C(O)CNC1CCNc2ccc(CC(C)(C)C)cc21 (single isomer, unassigned) [91.4 Diastereomer B]	18%	59%			
CCc1cc(CC(C)(C)C)cc2c1CCCC2NCC(O)C(Cc1cc(F)cc(F)c1)NC(C)=O (single isomer, unassigned) [91.8 Diastereomer A]			12 nM	23.3%	EC50 [5]: 32 nM
CCc1ccc2c(c1)C(NCC(O)C(Cc1cc(F)cc(F)c1)NC(C)=O)CCC2 (single isomer, unassigned) [91.5 Diastereomer A]	35%	44%			
